Measured values reported in PubChem BioAssay (NCI).
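In this assay, cells in 96-well plates receive the compound at five concentrations for 48 hours. Endpoints are linearly interpolated between the surrounding concentrations. GI50: concentration for 50% inhibition of growth. TGI denotes the concentration required for complete inhibition of growth.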

Experiments:
Experiment in all cases: DTP human tumour cell line panel, 48 h
[1] = test system: OVCAR-8 ovarian
[2] = test system: MALME-3M melanoma
[3] = test system: A549 NSCLC
[4] = test system: NCI-H522 lung
[5] = test system: IGROV1 ovarian
[6] = test system: SK-MEL-5 melanoma
[7] = test system: SR leukemia
[8] = test system: SK-MEL-28 melanoma
[9] = test system: MDA-N

| Compound | GI50 [1] [µM] | TGI [1] [µM] | GI50 [2] [µM] | TGI [2] [µM] | GI50 [3] [µM] | GI50 [4] [µM] | TGI [4] [µM] | GI50 [5] [µM] | TGI [5] [µM] | GI50 [6] [µM] | TGI [6] [µM] | GI50 [7] [µM] | TGI [7] [µM] | GI50 [8] [µM] | TGI [8] [µM] | TGI [3] [µM] | TGI [9] [µM] |
| --- | --- | --- | --- | --- | --- | --- | --- | --- | --- | --- | --- | --- | --- | --- | --- | --- | --- |
| CC(=O)c1cc2c(cc1Nc1c3ccccc3nc3occ(Cl)c13)OCO2 | 0.205 | 0.766 | 0.0796 | 0.45 | 0.2 | 0.0402 | 1.46 | 0.185 | > 100 | 0.103 | 0.376 | 0.12 | 1.06 | 0.541 | > 100 |  |  |
| C[C@@H]1CC[C@@H]2[C@@H]1[C@H](OC(=O)/C=C/c1ccccc1)[C@]1(C3CCCCC3)C[C@@H](NC(=O)CO)[C@@]2(C)O1 | 16.3 | 32 | 16.3 | 33 | 21 | 17.1 | 33.6 | 17.9 | 35.5 | 15.3 | 29 | 19.8 | 41.2 | 16.9 | 33 | 37 |  |
| CCN1C(NN)=NS(=O)(=O)c2ccccc21 |  | > 100 |  |  |  |  | > 100 |  | > 100 |  | > 100 |  | > 100 |  | > 100 | > 100 | > 100 |
| CN(C)c1ncnc2c1nnn2C1OC(CO)C(O)C1O (configuration not stated) | 0.0759 | > 100 | 0.332 | 63.5 | 3.53 | 0.272 | 1.41 | 0.361 | 15.9 | 0.737 | 5.7 | 0.393 | 7.64 | 0.404 | > 85.2 | > 100 |  |
| CN(C)c1ccc(/C=C2\N=C(c3ccc([N+](=O)[O-])cc3)OC2=O)cc1 |  | > 100 |  | > 100 |  |  | > 100 |  | > 100 |  | > 100 |  | 86.9 |  | > 100 | > 100 | > 100 |
| CCOC(=O)c1c2c(n(Cc3ccccc3)c1C)-c1ccccc1C(=O)C2=O | 14.9 | 43.7 | 13.7 | 29 | 16.8 | 14.8 | 35.5 | 4.35 | 20.1 | 18 | 41.2 | 3.39 | 19 | 16.4 | 41.4 | 36.4 |  |
| O=C(CF)N(O)c1ccc(/C=C/c2ccccc2)cc1 | 2.77 | > 96.2 | 24.6 | > 100 | 1.17 | 12.8 | > 100 | 2.53 | 13 | 14.4 | > 100 | 0.257 | 4.04 | > 40.4 | > 100 | > 100 |  |
| O=C1c2ccccc2C(=Cc2ccccc2)c2ccccc21 | 2.19 | 5.26 | 6.2 | 23.4 | 3.22 | 1.55 | 5.63 | 2.35 | 11.4 | 2.77 | 10.9 | 0.871 | 18.3 | 4.23 | 17.4 | 9.97 |  |
